Assay results published in patent US7547718B2, “Substituted imidazoles” (Pfizer Limited, priority 2006, dated 2009).

Test system: Rhipicephalus sanguineus (brown dog tick)
Experiment: In vitro tick assay (Rhip. Funct.)
Conditions: unfed R. sanguineus in precoated glass vials; lowest dose at which all five ticks were seen moving; observed at 24, 48 and 72 hours
Text: Application of octopamine agonists to acarids for example, ticks, causes distinct behavioural changes compared to untreated control ticks. Treated ticks become agitated and move constantly, this prevents ticks attaching and feeding on a host animal to which the compound has been applied. Normal behaviour of ticks is to go into stasis when all other external stimuli are removed. Agitation and movement can be measured in vitro in the laboratory to predict efficacy and potency in vivo.
The assay was run using unfed Rhipicephalus sanguineus (brown dog tick) and precoated glass vials with an inner surface area of 34.5 cm^2. Each compound was tested in duplicate.
Compound (345 μg) was dissolved in isopropyl alcohol (500 μl) and delivered to each vial. The vials were placed on a tilting roller in a fume hood for 2 hours to allow the isopropyl alcohol to evaporate giving a compound concentration for each vial of 10 μg/cm^2. Five R. sanguineus (male and female) were added to each coated vial and the vial sealed with a firm wad of cotton wool. Vials were then kept, undisturbed, on the bench at room temperature. Observation and recordings of activity were taken at 24, 48 and 72 hours after addition of ticks to the vials. The ED100 value was determined as the lowest dose at which all five ticks were seen moving around inside the vial.

Row | Compound | Rhip. Funct. ED100
1 | Cc1cccc(C(C)c2nccn2COC(=O)CC(C)C)c1C (centres unmarked) [Example 68, {2-[1-(2,3-Dimethylphenyl)ethyl]-1H-imidazol-1-yl}methyl 3-methyl butanoate] | 0.03 mg/cm^2
2 | Cc1cccc(C(C)c2nccn2COC(=O)OCCC(C)C)c1C (centres unmarked) [Example 139, {2-[1-(2,3-Dimethylphenyl)ethyl]-1H-imidazol-1-yl}methyl 3-methyl butyl carbonate] | <=0.03 mg/cm^2
3 | Cc1cccc(C(C)c2nccn2COC(=O)OC2CCC2)c1C (centres unmarked) [Example 141, Cyclobutyl{2-[1-(2,3-dimethylphenyl)ethyl]-1H-imidazol-1-yl}methyl carbonate] | 0.03 mg/cm^2
4 | Cc1cccc(C(C)c2nccn2COC(=O)NCCc2ccc(Cl)cc2Cl)c1C (centres unmarked) [Example 148, {2-[1-(2,3-Dimethylphenyl)ethyl]-1H-imidazol-1-yl}methyl[2-(2,4-dichlorophenyl)ethyl]carbamate] | >1 mg/cm^2
5 | CCC(CC)COC(=O)n1ccnc1[C@@H](C)c1cccc(C)c1C [Example 233, 2-Ethyl butyl 2-[(1S)-1-(2,3-dimethylphenyl)ethyl]-1H-imidazole-1-carboxylate] | <=10 mg/cm^2
6 | CCC(C)C(C)COC(=O)n1ccnc1[C@@H](C)c1cccc(C)c1C (stereo partly drawn) [Example 253, 2,3-Dimethyl pentyl 2-[(1S)-1-(2,3-dimethylphenyl)ethyl]-1H-imidazole-1-carboxylate] | 0.1 mg/cm^2
7 | Cc1cccc([C@H](C)c2nccn2C(=O)OCc2c(F)c(F)c(F)c(F)c2F)c1C [Example 270, Pentafluorobenzyl 2-[(1S)-1-(2,3-dimethylphenyl)ethyl]-1H -imidazole-1-carboxylate] | <=10 mg/cm^2
8 | Cc1cccc([C@H](C)c2nccn2C(=O)OCc2c(C)c(C)c(C)c(C)c2C)c1C [Example 294, Pentamethylbenzyl 2-[(1S)-1-(2,3-dimethylphenyl)ethyl]-1H -imidazole-1-carboxylate] | >0.03 mg/cm^2
